According to ChEMBL document CHEMBL1134245, “Two novel and potent 3-[(o-methoxyphenyl)piperazinylethyl]-5-phenylthien” (Bioorg Med Chem Lett, 2001):
pKi: −log10 of the molar value.

Assays:
[1] = molecular target: T1, Alpha-1D adrenergic receptor (Rattus norvegicus, UniProt P23944); test: Binding affinity towards rat Alpha-1D adrenergic receptor
T1 sequence (P23944 whole entry): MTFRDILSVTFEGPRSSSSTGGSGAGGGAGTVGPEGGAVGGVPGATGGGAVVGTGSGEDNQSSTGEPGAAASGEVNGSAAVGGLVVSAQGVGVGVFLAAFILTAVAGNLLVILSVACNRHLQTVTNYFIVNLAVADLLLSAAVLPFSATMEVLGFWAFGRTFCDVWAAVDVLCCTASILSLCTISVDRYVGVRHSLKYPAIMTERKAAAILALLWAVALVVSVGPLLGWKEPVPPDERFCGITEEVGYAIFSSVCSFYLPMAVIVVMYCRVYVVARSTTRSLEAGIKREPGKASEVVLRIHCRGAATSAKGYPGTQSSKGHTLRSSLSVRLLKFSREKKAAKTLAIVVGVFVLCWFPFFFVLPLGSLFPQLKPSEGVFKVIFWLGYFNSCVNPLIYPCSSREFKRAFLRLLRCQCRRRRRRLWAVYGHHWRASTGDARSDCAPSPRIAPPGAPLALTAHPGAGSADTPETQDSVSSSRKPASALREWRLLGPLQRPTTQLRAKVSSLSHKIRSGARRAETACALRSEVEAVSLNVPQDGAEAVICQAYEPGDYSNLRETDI

[2] = molecular target: T2, Alpha-1A adrenergic receptor (Rattus norvegicus, UniProt P43140); test: Binding affinity towards rat Alpha-1A adrenergic receptor
T2 sequence (P43140 whole entry): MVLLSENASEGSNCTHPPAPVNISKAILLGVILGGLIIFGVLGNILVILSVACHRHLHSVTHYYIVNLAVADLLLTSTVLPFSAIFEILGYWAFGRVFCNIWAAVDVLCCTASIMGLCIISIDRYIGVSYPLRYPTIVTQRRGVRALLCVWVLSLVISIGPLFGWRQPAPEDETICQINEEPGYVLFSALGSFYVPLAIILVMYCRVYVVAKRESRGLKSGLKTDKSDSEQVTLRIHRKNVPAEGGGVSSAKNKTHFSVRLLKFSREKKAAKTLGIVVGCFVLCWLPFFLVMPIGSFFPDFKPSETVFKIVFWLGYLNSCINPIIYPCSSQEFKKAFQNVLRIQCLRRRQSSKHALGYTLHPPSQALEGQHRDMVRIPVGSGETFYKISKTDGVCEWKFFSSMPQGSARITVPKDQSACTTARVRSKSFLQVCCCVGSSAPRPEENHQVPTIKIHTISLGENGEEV

[3] = molecular target: T3, Alpha-1D adrenergic receptor (Homo sapiens, UniProt P25100); test: Binding affinity towards human Alpha-1D adrenergic receptor
T3 sequence (P25100 whole entry): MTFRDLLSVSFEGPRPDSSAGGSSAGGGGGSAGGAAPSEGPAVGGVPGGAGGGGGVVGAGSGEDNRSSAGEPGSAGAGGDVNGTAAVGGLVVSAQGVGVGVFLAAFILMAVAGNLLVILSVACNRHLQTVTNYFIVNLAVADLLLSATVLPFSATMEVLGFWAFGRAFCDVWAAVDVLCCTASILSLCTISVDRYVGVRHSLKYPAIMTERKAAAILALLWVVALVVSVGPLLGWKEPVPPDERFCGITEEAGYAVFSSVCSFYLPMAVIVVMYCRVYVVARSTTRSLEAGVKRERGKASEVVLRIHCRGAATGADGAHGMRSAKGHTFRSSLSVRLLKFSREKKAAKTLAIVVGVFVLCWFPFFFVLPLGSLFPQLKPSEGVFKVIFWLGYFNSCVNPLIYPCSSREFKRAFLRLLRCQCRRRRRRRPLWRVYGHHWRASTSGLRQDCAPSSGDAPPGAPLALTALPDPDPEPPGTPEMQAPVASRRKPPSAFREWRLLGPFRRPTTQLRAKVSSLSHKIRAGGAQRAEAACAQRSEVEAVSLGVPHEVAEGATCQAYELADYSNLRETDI

[4] = molecular target: T4, Alpha-1A adrenergic receptor (Bos taurus, UniProt P18130); test: Binding affinity towards bovine Alpha-1A adrenergic receptor
T4 sequence (P18130 whole entry): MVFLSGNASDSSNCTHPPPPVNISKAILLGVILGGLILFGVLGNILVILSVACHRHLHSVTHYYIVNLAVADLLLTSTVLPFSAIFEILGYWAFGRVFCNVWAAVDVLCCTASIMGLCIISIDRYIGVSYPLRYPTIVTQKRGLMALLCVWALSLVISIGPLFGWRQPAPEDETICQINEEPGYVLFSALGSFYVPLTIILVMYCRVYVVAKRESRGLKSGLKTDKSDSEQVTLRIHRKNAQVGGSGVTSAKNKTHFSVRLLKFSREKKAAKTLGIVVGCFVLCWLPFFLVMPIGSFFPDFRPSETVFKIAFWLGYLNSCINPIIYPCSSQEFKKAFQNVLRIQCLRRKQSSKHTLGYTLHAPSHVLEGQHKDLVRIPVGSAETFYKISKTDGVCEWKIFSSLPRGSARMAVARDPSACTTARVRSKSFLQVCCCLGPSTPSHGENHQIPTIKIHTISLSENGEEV

[5] = molecular target: T5, Alpha-1B adrenergic receptor (Homo sapiens, UniProt P35368); test: Binding affinity towards human Alpha-1B adrenergic receptor
T5 sequence (P35368 whole entry): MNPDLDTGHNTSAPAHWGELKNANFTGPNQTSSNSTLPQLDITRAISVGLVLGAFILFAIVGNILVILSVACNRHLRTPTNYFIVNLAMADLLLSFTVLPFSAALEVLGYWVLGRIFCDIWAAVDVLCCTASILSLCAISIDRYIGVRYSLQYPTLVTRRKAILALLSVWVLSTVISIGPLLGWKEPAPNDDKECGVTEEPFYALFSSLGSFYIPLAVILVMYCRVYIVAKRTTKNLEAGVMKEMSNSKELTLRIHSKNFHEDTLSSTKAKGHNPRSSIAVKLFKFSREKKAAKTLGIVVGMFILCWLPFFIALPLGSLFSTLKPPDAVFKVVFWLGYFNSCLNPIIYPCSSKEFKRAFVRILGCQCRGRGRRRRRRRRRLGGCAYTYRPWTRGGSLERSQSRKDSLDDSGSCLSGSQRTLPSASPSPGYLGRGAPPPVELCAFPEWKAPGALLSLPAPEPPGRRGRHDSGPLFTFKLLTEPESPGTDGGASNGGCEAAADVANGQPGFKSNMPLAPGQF

[6] = molecular target: T6, Alpha-1A adrenergic receptor (Homo sapiens, UniProt P35348); test: Binding affinity for human Alpha-1A adrenergic receptor
T6 sequence (P35348 whole entry): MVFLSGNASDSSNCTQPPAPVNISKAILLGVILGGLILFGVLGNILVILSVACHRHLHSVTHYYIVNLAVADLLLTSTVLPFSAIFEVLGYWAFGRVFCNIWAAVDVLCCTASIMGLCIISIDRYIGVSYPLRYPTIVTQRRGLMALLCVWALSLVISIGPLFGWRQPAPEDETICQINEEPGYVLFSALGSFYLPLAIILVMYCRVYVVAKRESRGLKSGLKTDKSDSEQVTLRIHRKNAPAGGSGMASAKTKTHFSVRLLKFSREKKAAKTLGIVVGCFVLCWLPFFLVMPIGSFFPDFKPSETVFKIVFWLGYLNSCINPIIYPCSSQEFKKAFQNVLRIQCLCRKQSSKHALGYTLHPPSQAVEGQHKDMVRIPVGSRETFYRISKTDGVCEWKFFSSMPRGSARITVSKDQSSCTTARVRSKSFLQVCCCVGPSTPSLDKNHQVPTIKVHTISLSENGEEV

[7] = molecular target: T7, Alpha-1B adrenergic receptor (Rattus norvegicus, UniProt P15823); test: In vitro functional activity at Alpha-1B adrenergic receptor in rat spleen; format: tissue-based; details: read-out: pA2 (converted)
T7 sequence (P15823 whole entry): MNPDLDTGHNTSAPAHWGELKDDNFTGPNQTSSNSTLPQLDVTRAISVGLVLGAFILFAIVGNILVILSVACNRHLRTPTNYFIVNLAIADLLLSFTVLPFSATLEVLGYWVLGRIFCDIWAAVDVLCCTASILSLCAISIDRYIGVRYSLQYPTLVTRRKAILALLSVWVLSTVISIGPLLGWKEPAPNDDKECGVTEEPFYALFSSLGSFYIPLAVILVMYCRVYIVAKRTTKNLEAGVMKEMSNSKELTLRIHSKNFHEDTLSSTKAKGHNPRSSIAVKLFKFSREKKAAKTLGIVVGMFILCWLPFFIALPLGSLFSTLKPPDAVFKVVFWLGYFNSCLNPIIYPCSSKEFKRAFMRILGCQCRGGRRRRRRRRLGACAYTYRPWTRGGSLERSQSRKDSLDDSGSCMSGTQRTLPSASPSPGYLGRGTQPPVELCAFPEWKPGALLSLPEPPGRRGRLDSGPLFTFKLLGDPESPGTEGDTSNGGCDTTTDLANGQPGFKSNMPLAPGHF

pKi [1]	pKi [2]	pKi [3]	pKi [4]	pKi [5]	pKi [6]	Kb [7]	SMILES
9.64	9.28	9.51	9.74	8.91	9.46		COc1ccccc1N1CCN(CCn2c(=O)[nH]c3sccc3c2=O)CC1
9.60	8.71	9.33	9.42	8.43	8.58		COc1ccccc1N1CCN(CCn2c(=O)[nH]c3sc(C)c(-c4ccccc4)c3c2=O)CC1
9.44	9.24		9.61	8.73	9.06		COc1ccccc1N1CCN(CCn2c(=O)[nH]c3sc(-c4ccccc4)cc3c2=O)CC1
8.09	8.02	8.15	8.90	7.80	8.07		COc1ccccc1N1CCN(CCCn2c(=O)[nH]c3scc(-c4ccccc4)c3c2=O)CC1
9.15	8.58		9.36		8.51		COc1ccccc1N1CCN(CCn2c(=O)c3c(-c4ccccc4)csc3n(C)c2=O)CC1
		8.89			4.83		CC(CN1CCN(c2cc(F)c(F)cc2F)CC1)N1C(=O)CC2(CCCC2)CC1=O (single isomer, unassigned)
			7.37	7.03		42.7 nM	COc1ccccc1N1CCN(CCN2C(=O)CC3(CCCC3)CC2=O)CC1 [BMY-7378]
